# Assay results taken from ChEMBL document CHEMBL6109052, “Overview of the epigenetic/cytotoxic dual-target inhibitors for cancer therapy” (Eur J Med Chem, 2025).
# Columns and labels:
# Tubulin = experiment: Inhibition of tubulin polymerization (unknown origin); format: protein-complex assay, Homo sapiens
# [1] = target: T1, Poly [ADP-ribose] polymerase 1 (Homo sapiens, UniProt P09874); experiment: Inhibition of PARP1 (unknown origin)
# HCT-116 [2] = experiment: Antiproliferative activity against human HCT-116 cells assessed as reduction in cell viability incubated for 3 days by Cell-titer glo reagent based assay; format: functional; conditions: HCT-116, 72 h
# [3] = Half life in BALB/c mouse at 50 mg/kg, po by LC-MS/MS analysis; format: ADME, organism-based; conditions: in vivo
# A549 [4] = experiment: Antiproliferative activity against human A549 cells assessed as reduction in cell viability incubated for 3 days by Cell-titer glo reagent based assay; format: functional; conditions: A549, 72 h
# [5] = Oral bioavailability in BALB/c mouse at 50 mg/kg by LC-MS/MS analysis; format: ADME, organism-based; conditions: in vivo
# [6] = target: T2, Protein deacetylase HDAC6 (Homo sapiens, UniProt Q9UBN7); experiment: Inhibition of HDAC6 (unknown origin)
# T2 sequence (Q9UBN7 whole entry): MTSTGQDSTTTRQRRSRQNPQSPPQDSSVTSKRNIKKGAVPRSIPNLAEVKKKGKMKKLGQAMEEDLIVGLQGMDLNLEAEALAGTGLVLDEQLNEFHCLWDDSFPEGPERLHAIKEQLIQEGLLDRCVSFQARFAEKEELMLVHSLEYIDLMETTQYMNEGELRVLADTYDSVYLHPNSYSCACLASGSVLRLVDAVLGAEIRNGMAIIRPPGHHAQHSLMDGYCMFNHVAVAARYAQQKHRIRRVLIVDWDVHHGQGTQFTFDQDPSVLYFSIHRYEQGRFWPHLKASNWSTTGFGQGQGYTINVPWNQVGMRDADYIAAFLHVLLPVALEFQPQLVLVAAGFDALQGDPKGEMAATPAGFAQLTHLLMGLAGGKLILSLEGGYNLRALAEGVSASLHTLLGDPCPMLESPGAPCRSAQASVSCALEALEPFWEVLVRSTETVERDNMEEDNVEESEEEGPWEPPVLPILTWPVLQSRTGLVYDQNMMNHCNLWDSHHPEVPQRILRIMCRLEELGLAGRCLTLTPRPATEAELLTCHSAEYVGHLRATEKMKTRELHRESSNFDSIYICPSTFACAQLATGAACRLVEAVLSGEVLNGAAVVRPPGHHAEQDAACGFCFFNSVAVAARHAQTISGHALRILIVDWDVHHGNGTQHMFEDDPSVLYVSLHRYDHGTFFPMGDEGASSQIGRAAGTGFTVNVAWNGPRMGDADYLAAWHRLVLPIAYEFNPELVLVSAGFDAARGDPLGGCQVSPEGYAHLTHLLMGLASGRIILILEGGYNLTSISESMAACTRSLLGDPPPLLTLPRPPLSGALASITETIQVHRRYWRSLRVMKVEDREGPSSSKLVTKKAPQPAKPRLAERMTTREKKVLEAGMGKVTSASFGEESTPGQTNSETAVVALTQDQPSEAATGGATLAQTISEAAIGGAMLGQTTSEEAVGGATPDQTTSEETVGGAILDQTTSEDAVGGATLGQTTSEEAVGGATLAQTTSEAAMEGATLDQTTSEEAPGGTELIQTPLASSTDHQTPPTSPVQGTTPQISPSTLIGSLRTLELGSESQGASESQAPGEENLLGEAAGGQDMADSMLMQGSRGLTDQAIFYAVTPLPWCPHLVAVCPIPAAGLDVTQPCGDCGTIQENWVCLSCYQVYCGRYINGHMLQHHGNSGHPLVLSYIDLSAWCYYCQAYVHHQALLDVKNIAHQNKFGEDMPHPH
# Histone deacetylase 8 = Histone deacetylase 8 (Homo sapiens, UniProt Q9BY41); experiment: Inhibition of HDAC8 (unknown origin)
# Histone deacetylase 1 [7] = target: T3, Histone deacetylase 1 (Homo sapiens, UniProt Q13547); experiment: Inhibition of HDAC1 (unknown origin)
# Histone deacetylase 3 = Histone deacetylase 3 (Homo sapiens, UniProt O15379); experiment: Inhibition of HDAC3 (unknown origin)
# Histone deacetylase 2 = Histone deacetylase 2 (Homo sapiens, UniProt Q92769); experiment: Inhibition of HDAC2 (unknown origin)
# HT-29 [8] = experiment: Antiproliferative activity against human HT-29 cells; format: functional, cell-based
# HepG2 [9] = experiment: Antiproliferative activity against human HepG2 cells; format: functional, cell-based
# A549 [10] = experiment: Antiproliferative activity against human A549 cells; format: functional, cell-based
# Histone deacetylase 1 [11] = target: T3, Histone deacetylase 1; experiment: Inhibition of human recombinant HDAC1 using fluorogenic peptide p53 (379 to 382 residues) RHKK(Ac) as substrate by fluorescence based analysis
# [12] = target: T2, Protein deacetylase HDAC6; experiment: Inhibition of human recombinant HDAC6 using fluorogenic peptide p53 (379 to 382 residues) RHKK(Ac) as substrate by fluorescence based analysis
# A-431 = experiment: Antiproliferative activity against human A-431 cells assessed as reduction in cell growth incubated for 72 hrs by SRB assay; format: functional, cell-based; conditions: A-431, 72 h
# [13] = Antiproliferative activity against human Doxorubicin-resistant A2780-DX cells assessed as reduction in cell growth incubated for 72 hrs by SRB assay; format: functional, cell-based
# HT-29 [14] = experiment: Antiproliferative activity against human HT-29 cells assessed as reduction in cell growth incubated for 72 hrs by SRB assay; format: functional, cell-based; conditions: HT-29, 72 h
# [15] = target: Polyamine deacetylase HDAC10 (Homo sapiens, UniProt Q969S8); experiment: Inhibition of human recombinant HDAC10 using fluorogenic peptide p53 (379 to 382 residues) RHKK(Ac) as substrate by fluorescence based analysis
# CAPAN-1 = experiment: Antiproliferative activity against human CAPAN-1 cells assessed as reduction in cell growth incubated for 72 hrs by SRB assay; format: functional, cell-based; conditions: CAPAN-1, 72 h
# HepG2 [16] = experiment: Antiproliferative activity against human HepG2 cells assessed as reduction in cell growth incubated for 72 hrs by SRB assay; format: functional, cell-based; conditions: HepG2, 72 h
# [17] = Inhibition of human recombinant HDAC2 using fluorogenic peptide p53 (379 to 382 residues) RHKK(Ac) as substrate by fluorescence based analysis
# DU-145 = experiment: Antiproliferative activity against human DU-145 cells assessed as reduction in cell growth incubated for 72 hrs by SRB assay; format: functional, cell-based; conditions: DU-145, 72 h
# NCI-H460 = experiment: Antiproliferative activity against human NCI-H460 cells assessed as reduction in cell growth incubated for 72 hrs by SRB assay; format: functional, cell-based; conditions: NCI-H460, 72 h
# [18] = Cytotoxicity against human MM472 cells assessed as reduction in cell viability incubated for 72 hrs by SRB assay; format: functional, cell-based; conditions: MM472, 72 h
# HeLa = experiment: Antiproliferative activity against human Hela cells assessed as reduction in cell growth incubated for 72 hrs by SRB assay; format: functional, cell-based
# A2780 = experiment: Antiproliferative activity against human A2780 cells assessed as reduction in cell growth incubated for 72 hrs by SRB assay; format: functional, cell-based; conditions: A2780, 72 h
# HCT-116 [19] = experiment: Antiproliferative activity against human HCT-116 cells assessed as reduction in cell viability incubated for 48 hrs by MTT assay; format: functional, cell-based; conditions: HCT-116, 48 h
# [20] = target: T1, Poly [ADP-ribose] polymerase 1; experiment: Inhibition of PARP-1 (unknown origin)
# K562 = experiment: Antiproliferative activity against human K562 cells assessed as reduction in cell viability incubated for 48 hrs by MTT assay; format: functional, cell-based; conditions: K562, 48 h
# MCF7 = experiment: Antiproliferative activity against human MCF7 cells assessed as reduction in cell viability incubated for 48 hrs by MTT assay; format: functional, cell-based; conditions: MCF7, 48 h
# HCC1937 = experiment: Antiproliferative activity against human HCC1937 cells assessed as reduction in cell viability incubated for 48 hrs by MTT assay; format: functional, cell-based; conditions: HCC1937, 48 h
# [21] = Metabolic stability in human liver microsomes assessed as half life for 30 mins by LC-MS/MS analysis; format: ADME, Microsome
# [22] = Metabolic stability in human liver microsomes assessed as intrinsic clearance measured for 30 mins by LC-MS/MS analysis; format: ADME, Microsome; conditions: read-out: CLH
# MGC-803 = experiment: Antiproliferative activity against human MGC-803 cells by MTT assay; format: functional, cell-based
# EA.hy 926 = experiment: Antiproliferative activity against human EA.hy 926 cells assessed as reduction in cell growth incubated for 72 hrs by MTT assay; format: functional, cell-based; conditions: EA.hy 926, 72 h
# HepG2 [23] = experiment: Antiproliferative activity against human HepG2 cells assessed as reduction in cell viability incubated for 48 hrs by MTT assay; conditions: HepG2, 48 h
# Bel-7402 = experiment: Antitumor activity against human Bel-7402 cells xenografted in nude mouse model assessed as tumor growth inhibition at 50 mg/kg, IG administered for 21 days relative to control; conditions: Bel-7402, po, 504 h, read-out: TGI
# SNU-475 = experiment: Antiproliferative activity against human SNU-475 cells assessed as reduction in cell viability incubated for 48 hrs by MTT assay; conditions: SNU-475, 48 h
# Histone deacetylase 4 = Histone deacetylase 4 (Homo sapiens, UniProt P56524); experiment: Inhibition of HDAC4 (unknown origin)
# Histone deacetylase 5 = Histone deacetylase 5 (Homo sapiens, UniProt Q9UQL6); experiment: Inhibition of HDAC5 (unknown origin)
# DNA topoisomerase 1 = DNA topoisomerase 1 (Homo sapiens, UniProt P11387); experiment: Inhibition of Topoisomerase 1 (unknown origin)
# Chain of DNA topoisomerase 1 (P11387 whole entry): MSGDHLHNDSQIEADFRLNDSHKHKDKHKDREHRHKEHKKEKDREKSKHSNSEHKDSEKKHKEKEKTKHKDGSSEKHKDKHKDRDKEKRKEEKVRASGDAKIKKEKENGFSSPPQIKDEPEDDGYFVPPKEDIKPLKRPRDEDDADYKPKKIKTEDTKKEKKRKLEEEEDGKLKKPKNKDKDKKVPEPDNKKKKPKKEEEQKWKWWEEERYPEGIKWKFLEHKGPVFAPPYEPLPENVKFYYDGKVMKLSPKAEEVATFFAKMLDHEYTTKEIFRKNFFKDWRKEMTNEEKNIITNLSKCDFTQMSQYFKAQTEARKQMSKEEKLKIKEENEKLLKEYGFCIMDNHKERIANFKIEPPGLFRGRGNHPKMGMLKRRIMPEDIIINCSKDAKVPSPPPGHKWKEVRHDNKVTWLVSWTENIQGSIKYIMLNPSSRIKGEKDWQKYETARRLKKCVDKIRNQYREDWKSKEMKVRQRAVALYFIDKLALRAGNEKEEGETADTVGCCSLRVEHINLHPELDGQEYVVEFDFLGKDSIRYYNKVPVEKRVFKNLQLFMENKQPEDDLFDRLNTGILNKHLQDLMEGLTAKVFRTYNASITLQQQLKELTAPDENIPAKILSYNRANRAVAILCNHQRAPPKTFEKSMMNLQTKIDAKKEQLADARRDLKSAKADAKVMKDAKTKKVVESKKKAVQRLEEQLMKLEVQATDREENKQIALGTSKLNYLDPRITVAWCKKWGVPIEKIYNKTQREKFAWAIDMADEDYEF
# T3 sequence (Q13547 whole entry): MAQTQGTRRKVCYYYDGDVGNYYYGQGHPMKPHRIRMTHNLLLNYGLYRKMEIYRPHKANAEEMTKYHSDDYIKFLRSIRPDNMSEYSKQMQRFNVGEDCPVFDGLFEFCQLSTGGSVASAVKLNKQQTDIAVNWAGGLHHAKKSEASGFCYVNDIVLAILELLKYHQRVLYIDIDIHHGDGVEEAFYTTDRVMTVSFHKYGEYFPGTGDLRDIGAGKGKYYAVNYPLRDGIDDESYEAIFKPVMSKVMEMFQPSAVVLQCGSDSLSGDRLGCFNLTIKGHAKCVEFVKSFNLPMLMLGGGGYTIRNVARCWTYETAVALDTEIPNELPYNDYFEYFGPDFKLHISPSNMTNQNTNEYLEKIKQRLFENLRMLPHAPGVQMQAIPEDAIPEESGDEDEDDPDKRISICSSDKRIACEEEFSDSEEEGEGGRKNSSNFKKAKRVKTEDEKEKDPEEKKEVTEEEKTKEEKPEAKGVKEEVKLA
# Chain of Histone deacetylase 2 (Q92769 whole entry): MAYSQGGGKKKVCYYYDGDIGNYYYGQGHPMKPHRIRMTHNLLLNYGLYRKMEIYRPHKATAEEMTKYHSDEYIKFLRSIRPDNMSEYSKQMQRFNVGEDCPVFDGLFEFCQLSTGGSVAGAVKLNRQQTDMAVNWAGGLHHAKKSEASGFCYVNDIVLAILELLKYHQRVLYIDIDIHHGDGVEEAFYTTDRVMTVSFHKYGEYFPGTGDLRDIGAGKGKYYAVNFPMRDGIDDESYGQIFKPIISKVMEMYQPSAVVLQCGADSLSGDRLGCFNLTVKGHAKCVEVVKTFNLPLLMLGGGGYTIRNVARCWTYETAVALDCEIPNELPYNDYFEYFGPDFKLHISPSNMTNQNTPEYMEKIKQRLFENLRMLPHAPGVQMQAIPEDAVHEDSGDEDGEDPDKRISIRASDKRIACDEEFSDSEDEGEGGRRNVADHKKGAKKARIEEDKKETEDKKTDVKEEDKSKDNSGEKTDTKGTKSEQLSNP
# Chain of Histone deacetylase 3 (O15379 whole entry): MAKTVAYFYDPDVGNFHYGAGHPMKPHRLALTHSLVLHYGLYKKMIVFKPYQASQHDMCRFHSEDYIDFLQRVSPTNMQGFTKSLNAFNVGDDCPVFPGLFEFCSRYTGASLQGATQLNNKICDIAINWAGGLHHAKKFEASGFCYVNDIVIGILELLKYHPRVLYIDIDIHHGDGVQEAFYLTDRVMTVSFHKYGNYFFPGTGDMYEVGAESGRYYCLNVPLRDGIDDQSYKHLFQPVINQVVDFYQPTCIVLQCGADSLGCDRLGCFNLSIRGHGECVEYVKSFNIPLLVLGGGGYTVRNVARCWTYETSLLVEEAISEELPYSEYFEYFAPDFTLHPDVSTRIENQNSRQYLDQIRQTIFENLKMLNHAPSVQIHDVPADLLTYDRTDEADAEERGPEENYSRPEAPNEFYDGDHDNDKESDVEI
# T1 sequence (P09874 whole entry): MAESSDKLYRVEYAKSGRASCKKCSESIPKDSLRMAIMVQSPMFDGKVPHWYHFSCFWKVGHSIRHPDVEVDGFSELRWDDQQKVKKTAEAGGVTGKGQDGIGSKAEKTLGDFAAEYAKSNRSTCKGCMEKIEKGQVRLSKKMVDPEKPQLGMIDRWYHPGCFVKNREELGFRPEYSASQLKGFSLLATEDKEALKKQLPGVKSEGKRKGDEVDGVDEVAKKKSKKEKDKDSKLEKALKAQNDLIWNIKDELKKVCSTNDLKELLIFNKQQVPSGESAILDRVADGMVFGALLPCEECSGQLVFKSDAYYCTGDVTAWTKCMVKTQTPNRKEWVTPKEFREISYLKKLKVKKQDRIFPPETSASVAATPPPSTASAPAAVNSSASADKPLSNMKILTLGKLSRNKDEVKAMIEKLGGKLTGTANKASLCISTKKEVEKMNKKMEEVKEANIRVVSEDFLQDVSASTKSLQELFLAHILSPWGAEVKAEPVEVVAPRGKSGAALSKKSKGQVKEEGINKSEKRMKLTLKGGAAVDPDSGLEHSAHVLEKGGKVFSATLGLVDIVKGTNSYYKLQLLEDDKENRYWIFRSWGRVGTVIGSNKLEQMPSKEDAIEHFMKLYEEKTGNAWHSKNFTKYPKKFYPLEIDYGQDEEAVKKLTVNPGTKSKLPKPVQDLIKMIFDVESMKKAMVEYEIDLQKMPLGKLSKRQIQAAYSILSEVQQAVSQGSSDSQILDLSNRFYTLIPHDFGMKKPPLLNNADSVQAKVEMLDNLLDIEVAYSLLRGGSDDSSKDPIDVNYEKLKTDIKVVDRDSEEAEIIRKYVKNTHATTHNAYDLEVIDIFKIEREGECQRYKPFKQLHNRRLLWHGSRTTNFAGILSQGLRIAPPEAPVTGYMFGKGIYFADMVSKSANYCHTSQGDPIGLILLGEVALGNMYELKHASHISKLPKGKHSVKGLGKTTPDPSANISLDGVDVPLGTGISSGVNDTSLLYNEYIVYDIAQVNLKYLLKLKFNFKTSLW
# Chain of Polyamine deacetylase HDAC10 (Q969S8 whole entry, the tested form may be a part): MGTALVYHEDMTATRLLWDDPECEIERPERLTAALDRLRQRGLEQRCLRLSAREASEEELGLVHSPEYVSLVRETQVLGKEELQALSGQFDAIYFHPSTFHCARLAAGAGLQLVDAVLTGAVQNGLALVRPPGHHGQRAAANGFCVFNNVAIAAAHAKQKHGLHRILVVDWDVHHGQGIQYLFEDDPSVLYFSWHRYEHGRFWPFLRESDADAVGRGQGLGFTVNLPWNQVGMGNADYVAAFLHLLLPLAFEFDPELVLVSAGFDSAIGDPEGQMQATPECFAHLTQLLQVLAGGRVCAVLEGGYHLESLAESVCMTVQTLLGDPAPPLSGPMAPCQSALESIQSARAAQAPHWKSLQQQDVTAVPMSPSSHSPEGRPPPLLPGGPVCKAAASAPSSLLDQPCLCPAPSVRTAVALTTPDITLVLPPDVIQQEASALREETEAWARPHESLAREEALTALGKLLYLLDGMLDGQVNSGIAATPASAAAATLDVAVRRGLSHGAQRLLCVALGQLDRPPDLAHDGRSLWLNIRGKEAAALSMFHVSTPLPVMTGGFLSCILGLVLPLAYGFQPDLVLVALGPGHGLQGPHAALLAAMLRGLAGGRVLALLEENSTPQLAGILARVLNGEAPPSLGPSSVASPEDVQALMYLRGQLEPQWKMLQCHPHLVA
# Chain of Histone deacetylase 5 (Q9UQL6 whole entry): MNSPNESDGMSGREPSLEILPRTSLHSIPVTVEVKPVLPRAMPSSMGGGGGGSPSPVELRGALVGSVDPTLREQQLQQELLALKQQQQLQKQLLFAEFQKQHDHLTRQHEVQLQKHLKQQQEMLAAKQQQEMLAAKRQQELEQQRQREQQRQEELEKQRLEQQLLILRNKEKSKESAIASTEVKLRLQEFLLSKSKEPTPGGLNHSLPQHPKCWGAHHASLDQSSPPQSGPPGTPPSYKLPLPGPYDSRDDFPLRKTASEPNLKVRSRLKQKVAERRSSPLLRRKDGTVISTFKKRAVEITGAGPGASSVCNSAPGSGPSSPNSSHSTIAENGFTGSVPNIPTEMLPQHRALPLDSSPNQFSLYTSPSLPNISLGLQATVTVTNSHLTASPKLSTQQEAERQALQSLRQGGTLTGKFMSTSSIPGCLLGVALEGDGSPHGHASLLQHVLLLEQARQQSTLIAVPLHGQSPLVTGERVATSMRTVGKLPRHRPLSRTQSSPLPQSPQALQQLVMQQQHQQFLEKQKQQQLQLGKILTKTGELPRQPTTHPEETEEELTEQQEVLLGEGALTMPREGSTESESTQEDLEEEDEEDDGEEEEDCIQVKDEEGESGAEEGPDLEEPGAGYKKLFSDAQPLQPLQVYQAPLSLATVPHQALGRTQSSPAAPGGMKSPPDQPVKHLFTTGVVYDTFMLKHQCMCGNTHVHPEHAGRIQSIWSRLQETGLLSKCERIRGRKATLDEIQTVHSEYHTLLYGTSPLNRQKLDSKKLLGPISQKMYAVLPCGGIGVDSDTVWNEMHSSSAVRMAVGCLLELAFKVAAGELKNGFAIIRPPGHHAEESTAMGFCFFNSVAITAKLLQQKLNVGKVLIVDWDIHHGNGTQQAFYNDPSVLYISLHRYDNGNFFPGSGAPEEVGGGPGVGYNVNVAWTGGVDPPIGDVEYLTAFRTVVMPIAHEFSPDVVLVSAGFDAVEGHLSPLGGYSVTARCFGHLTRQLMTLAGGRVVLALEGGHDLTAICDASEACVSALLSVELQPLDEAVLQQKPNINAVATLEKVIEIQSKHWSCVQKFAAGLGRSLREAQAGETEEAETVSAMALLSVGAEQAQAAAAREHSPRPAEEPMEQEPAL
structure (smiles),measurement,setting,value
CCOC(=O)Nc1nc2ccc(-c3cc(Cc4n[nH]c(=O)c5ccccc45)ccc3F)cc2[nH]1,IC50,Tubulin,990 nM
same,IC50,[1],7 nM
same,IC50,HCT-116 [2],352 nM
same,half-life,[3],3.28 h
same,IC50,A549 [4],141 nM
same,bioavailability,[5],31%
O=C(Cc1ccc(/C=C/C(=O)c2ncc[nH]2)cc1)Nc1ccc(F)cc1,IC50,[6],2000 nM
same,IC50,Histone deacetylase 8,1400 nM
same,IC50,Histone deacetylase 1 [7],1800 nM
same,IC50,Histone deacetylase 3,1800 nM
same,IC50,Histone deacetylase 2,2100 nM
COc1ccc2c3ccnc(C)c3n(CC3CCN(c4ncc(C(=O)NO)cn4)CC3)c2c1,IC50,HT-29 [8],1880 nM
same,IC50,HepG2 [9],2880 nM
same,IC50,A549 [10],5960 nM
CC[C@]1(O)C(=O)OCc2c1cc1n(c2=O)Cc2c-1nc1ccc(O)cc1c2/C=N/OCCCCCC(=O)NO,IC50,Histone deacetylase 1 [11],5260 nM
same,IC50,[12],1560 nM
same,IC50,A-431,30 nM
same,IC50,[13],30 nM
same,IC50,HT-29 [14],30 nM
same,IC50,[15],2240 nM
same,IC50,CAPAN-1,30 nM
same,IC50,HepG2 [16],30 nM
same,IC50,[17],9330 nM
same,IC50,DU-145,30 nM
same,IC50,NCI-H460,30 nM
same,IC50,[18],48 nM
same,IC50,HeLa,30 nM
same,IC50,A2780,30 nM
O=C(c1cc(Cc2n[nH]c(=O)c3ccccc23)ccc1F)N1CCN(c2c3ccccc3nc3ccccc23)CC1,IC50,HCT-116 [19],12900 nM
same,IC50,[20],11800 nM
same,IC50,K562,3940 nM
same,IC50,MCF7,13800 nM
same,IC50,HCC1937,7960 nM
COc1ccc(-c2cccc(-c3cc(OC)c(OC)c(OC)c3)n2)cc1C(=O)NO,IC50,Tubulin,2400 nM
same,half-life,[21],0.913 h
same,CLint scaled,[22],22.8 mL/min/kg
COc1ccc(CN(C(=O)Cc2ccc(C(=O)Nc3ccccc3N)cc2)c2cc(OC)c(OC)c(OC)c2)cc1O,IC50,[6],77400 nM
same,IC50,Histone deacetylase 3,5270 nM
same,IC50,MGC-803,39 nM
same,IC50,Histone deacetylase 2,3010 nM
COc1ccc(-c2ocnc2-c2cc(Br)c(OC)c(OC)c2)cc1OCCCCCC(=O)NO,IC50,EA.hy 926,410 nM
COc1cc(/C=C/C(=O)c2ccc(NC(=O)c3ccccc3CN3C(=O)c4ccccc4C3=O)cc2)cc(OC)c1OC,IC50,Histone deacetylase 1 [7],220 nM
same,IC50,Histone deacetylase 2,430 nM
COc1ccc(S(=O)(=O)N(CCSC(=S)N2CCN(C)CC2)c2cc(OC)c(OC)c(OC)c2)cc1,IC50,HepG2 [23],570 nM
same,inhibition in vivo at 50 mg/kg,Bel-7402,43%
same,IC50,SNU-475,730 nM
Cn1c(CCCCCCC(=O)NO)nc2ccc(N(CCCl)CCCl)cc21,IC50,[6],72 nM
same,IC50,Histone deacetylase 4,6.4 nM
same,IC50,Histone deacetylase 1 [7],17 nM
same,IC50,Histone deacetylase 3,25 nM
same,IC50,Histone deacetylase 2,10 nM
same,IC50,Histone deacetylase 5,107 nM
Cc1ccc(Cn2cc(CSC(=S)N3CCN(C(=O)OC(C)(C)C)CC3)nn2)cc1,IC50,Tubulin,1270 nM
CCc1c2c(nc3ccc(O)cc13)-c1cc3c(c(=O)n1C2)COC(=O)[C@]3(O)CC [7-ETHYL-10-HYDROXYCAMPTOTHECIN],IC50,DNA topoisomerase 1,770 nM
